Experimental data from ChEMBL document CHEMBL1681689, “Discovery of N-methyl-1-(1-phenylcyclohexyl)ethanamine, a novel triple serotonin, norepinephrine and dopamine reuptake inhibitor” (Bioorg Med Chem Lett, 2011).
Active and inactive are the calls of the source. No cut-off for these calls is given here.

Columns and labels:
[1] = target: Sodium-dependent serotonin transporter (Homo sapiens, UniProt P31645); format: cell-based, LLC-PK1
[2] = Half life in mouse liver microsomes by in vitro metabolic stability assay; format: ADME, Microsome; details: for half-life: liver microsomes; for t1/2: microsomes
[3] = (§1) Half life in human liver microsomes by in vitro metabolic stability assay; format: ADME, Microsome; details: liver microsomes
Mus musculus [4] = experiment: Antidepressant activity in mouse assessed as reduction of immobility duration measured at first 5 mins time point at 10 or 30 mg/kg, po by tail suspension test; format: functional, organism-based; parameters: dose 30 mg/kg
Plasma [5] = experiment: Drug level in mouse plasma at 10 mg/kg, po; format: functional, organism-based; parameters: dose 10 mg/kg
Plasma [6] = experiment: Drug level in mouse plasma at 3 mg/kg, po; format: functional, organism-based; parameters: dose 3 mg/kg
Brain [7] = experiment: Drug level in mouse brain at 30 mg/kg, po; format: functional, organism-based; parameters: dose 30 mg/kg
Mus musculus [8] = experiment: Antidepressant activity in po dosed mouse assessed as reduction of immobility duration measured by tail suspension test; format: functional, organism-based
Brain [9] = experiment: Drug level in mouse brain at 3 mg/kg, po; format: functional, organism-based; parameters: dose 3 mg/kg
Brain [10] = experiment: Drug level in mouse brain at 10 mg/kg, po; format: functional, organism-based; parameters: dose 10 mg/kg
Plasma [11] = experiment: Drug level in mouse plasma at 30 mg/kg, po; format: functional, organism-based; parameters: dose 30 mg/kg
Liver microsomes = experiment: as §1; format: ADME, Microsome; details: microsomes
Mus musculus [12] = experiment: Antidepressant activity in mouse assessed as reduction in immobility duration pretreated 30 mins before at 10 mg/kg, po by tail suspension test; format: functional; parameters: scale not given: the % may be the effect or the level left
Mus musculus [13] = experiment: Antidepressant activity in mouse assessed as reduction in immobility duration pretreated 30 mins before at 100 mg/kg, po by tail suspension test; format: functional; parameters: scale not given: the % may be the effect or the level left
[14] = Inhibition of CYP1A; format: ADME
Cytochrome P450 2D6 = Cytochrome P450 2D6 (Homo sapiens, UniProt P10635); experiment: Inhibition of CYP2D6; format: ADME
Mus musculus [15] = experiment: Antidepressant activity in mouse assessed as reduction in immobility duration pretreated 30 mins before at 30 mg/kg, po by tail suspension test; format: functional; parameters: scale not given: the % may be the effect or the level left
[16] = target: T1, Voltage-gated inwardly rectifying potassium channel KCNH2 (Homo sapiens, UniProt Q12809)
[17] = target: Sodium-dependent dopamine transporter (Homo sapiens, UniProt Q01959); format: cell-based, COS-7
[18] = target: Sodium-dependent noradrenaline transporter (Homo sapiens, UniProt P23975)
Cytochrome P450 2C19 = Cytochrome P450 2C19 (Homo sapiens, UniProt P33261); experiment: Inhibition of CYP2C19; format: ADME
Cytochrome P450 3A4 = Cytochrome P450 3A4 (Homo sapiens, UniProt P08684); experiment: Inhibition of CYP3A4; format: ADME
[19] = target: T1, Voltage-gated inwardly rectifying potassium channel KCNH2; remark: listed apart in the source
Cytochrome P450 2C9 = Cytochrome P450 2C9 (Homo sapiens, UniProt P11712); experiment: Inhibition of CYP2C9; format: ADME
Cytochrome P450 2C9, sequence (P11712 whole entry): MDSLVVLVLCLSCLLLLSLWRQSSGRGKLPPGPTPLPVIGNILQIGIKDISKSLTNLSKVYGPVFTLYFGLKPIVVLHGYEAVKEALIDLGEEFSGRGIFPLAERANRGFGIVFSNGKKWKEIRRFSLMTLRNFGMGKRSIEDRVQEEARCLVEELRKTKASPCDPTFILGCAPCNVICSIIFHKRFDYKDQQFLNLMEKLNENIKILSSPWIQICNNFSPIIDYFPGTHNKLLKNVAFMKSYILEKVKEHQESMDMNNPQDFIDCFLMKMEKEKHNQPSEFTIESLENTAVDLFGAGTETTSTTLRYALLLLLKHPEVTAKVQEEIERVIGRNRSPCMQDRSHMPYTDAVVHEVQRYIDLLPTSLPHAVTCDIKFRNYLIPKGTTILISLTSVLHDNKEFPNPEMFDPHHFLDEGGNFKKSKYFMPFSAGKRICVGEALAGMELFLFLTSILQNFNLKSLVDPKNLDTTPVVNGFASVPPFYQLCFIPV

Cytochrome P450 2D6, sequence (P10635 whole entry): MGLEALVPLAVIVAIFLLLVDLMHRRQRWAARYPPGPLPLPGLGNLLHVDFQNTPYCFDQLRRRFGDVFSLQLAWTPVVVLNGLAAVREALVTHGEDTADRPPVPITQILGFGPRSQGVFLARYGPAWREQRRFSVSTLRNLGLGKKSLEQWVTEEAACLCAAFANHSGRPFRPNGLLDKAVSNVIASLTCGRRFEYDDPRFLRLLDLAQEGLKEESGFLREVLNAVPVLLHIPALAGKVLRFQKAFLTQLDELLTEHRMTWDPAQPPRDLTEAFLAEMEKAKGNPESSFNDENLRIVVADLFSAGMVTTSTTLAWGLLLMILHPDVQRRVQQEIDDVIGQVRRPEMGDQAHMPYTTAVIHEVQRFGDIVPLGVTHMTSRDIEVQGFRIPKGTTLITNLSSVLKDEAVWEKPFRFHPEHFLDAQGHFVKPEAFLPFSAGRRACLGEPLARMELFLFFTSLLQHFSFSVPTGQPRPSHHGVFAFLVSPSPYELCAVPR
T1 sequence (Q12809 whole entry): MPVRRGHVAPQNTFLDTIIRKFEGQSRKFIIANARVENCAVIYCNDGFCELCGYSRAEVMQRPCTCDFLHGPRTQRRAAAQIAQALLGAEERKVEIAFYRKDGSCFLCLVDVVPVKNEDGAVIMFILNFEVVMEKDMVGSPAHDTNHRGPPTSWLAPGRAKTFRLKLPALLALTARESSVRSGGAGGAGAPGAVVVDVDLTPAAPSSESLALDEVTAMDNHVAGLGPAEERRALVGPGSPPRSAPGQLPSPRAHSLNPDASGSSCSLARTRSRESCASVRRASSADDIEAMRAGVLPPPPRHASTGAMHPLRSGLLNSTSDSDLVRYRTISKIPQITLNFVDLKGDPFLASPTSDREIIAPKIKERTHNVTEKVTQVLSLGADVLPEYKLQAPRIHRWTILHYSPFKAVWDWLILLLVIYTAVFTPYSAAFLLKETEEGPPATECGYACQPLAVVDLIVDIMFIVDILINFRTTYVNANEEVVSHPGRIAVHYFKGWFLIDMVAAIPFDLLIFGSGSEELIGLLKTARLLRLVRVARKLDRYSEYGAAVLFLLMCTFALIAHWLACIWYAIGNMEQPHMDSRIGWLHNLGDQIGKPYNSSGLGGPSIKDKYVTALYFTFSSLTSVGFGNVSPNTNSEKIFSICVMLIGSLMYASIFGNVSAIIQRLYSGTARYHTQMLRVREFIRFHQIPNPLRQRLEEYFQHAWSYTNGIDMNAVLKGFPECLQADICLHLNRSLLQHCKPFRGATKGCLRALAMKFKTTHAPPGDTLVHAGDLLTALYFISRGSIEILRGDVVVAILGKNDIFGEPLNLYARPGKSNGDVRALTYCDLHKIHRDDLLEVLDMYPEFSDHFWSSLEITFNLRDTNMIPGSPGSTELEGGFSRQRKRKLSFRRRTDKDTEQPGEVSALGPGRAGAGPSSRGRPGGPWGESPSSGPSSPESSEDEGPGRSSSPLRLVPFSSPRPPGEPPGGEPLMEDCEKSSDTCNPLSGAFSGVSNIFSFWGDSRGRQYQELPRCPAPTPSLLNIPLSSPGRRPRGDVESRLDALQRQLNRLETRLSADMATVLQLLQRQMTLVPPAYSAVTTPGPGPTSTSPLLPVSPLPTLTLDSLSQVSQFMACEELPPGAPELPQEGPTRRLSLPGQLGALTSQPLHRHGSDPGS
Cytochrome P450 2C19, sequence (P33261 whole entry): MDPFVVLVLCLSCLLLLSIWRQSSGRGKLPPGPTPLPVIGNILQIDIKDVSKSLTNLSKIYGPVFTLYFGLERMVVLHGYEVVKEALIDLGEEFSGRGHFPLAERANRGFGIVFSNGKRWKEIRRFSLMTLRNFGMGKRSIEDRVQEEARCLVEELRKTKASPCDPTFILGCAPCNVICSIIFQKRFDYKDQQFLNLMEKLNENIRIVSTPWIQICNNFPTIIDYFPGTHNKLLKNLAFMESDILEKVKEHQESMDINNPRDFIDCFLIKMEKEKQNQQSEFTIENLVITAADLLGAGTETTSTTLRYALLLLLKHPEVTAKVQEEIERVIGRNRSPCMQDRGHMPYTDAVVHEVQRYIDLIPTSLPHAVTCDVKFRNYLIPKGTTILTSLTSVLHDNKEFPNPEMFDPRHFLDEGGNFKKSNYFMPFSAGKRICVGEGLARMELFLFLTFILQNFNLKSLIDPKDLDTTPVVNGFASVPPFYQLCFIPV
Cytochrome P450 3A4, sequence (P08684 whole entry): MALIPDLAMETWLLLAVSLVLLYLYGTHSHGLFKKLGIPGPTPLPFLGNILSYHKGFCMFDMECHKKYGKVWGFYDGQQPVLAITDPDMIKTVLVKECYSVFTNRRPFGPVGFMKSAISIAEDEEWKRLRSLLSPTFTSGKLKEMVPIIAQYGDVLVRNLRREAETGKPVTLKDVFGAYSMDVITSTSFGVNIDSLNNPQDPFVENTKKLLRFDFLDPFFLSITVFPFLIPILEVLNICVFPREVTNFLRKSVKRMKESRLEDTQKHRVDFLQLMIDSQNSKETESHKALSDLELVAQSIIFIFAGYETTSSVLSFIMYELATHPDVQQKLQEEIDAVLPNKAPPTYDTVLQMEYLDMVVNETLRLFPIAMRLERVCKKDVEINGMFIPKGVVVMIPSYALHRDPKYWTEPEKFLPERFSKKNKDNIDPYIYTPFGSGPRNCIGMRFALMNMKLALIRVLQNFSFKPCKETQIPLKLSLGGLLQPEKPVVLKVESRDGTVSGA
Sodium-dependent serotonin transporter, sequence (P31645 whole entry): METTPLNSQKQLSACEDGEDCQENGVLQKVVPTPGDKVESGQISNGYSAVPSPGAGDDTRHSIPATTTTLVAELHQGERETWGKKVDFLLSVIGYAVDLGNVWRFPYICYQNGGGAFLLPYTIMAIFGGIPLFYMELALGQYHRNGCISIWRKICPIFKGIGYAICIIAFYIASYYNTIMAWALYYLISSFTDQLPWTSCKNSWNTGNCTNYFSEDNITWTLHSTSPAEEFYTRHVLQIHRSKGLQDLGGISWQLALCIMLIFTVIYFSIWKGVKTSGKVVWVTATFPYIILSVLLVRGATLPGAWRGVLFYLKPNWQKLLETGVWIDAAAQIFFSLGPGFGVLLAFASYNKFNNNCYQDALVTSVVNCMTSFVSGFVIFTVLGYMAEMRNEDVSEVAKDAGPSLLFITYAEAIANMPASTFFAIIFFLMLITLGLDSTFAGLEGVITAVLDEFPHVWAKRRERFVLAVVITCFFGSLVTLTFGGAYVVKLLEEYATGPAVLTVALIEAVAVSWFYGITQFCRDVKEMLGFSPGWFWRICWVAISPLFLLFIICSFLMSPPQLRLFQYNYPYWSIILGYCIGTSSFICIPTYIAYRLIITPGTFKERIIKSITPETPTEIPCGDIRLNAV
Sodium-dependent noradrenaline transporter, sequence (P23975 whole entry): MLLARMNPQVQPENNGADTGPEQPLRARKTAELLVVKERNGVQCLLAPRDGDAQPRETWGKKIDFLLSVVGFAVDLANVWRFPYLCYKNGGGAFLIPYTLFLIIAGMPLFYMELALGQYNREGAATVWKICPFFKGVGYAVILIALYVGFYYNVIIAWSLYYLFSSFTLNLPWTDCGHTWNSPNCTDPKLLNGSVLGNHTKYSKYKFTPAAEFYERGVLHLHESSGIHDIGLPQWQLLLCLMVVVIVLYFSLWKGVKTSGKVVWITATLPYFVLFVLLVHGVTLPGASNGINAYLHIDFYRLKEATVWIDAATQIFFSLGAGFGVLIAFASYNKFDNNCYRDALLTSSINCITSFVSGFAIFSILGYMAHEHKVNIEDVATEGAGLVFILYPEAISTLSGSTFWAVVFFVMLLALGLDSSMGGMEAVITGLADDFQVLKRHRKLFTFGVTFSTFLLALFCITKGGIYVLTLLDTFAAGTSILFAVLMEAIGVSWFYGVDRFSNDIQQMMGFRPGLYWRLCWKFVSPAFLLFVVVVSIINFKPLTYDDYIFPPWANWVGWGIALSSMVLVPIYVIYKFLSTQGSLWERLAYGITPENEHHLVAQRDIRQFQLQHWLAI
Sodium-dependent dopamine transporter, sequence (Q01959 whole entry): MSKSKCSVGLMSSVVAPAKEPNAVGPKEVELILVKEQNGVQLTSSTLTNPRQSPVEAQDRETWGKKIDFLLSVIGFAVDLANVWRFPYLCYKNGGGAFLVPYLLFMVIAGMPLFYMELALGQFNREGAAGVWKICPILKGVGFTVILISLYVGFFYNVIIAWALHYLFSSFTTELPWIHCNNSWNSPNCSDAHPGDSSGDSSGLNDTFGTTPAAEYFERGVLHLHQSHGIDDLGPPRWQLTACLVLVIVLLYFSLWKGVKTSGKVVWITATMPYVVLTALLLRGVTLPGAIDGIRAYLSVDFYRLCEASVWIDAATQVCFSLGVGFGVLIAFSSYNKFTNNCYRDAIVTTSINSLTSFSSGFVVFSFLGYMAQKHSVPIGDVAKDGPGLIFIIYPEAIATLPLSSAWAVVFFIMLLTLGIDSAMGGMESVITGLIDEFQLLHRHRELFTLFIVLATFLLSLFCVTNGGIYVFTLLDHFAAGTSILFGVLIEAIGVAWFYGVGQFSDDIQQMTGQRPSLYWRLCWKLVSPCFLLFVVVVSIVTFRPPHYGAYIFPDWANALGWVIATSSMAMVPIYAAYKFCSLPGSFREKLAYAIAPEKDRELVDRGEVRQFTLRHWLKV

SMILES: CC(N)C1(c2ccc(OC(F)(F)F)cc2)CCCCC1 (configuration not stated)
- IC50 [1]: 0.11 µM
- half-life [2]: 100 min
- half-life [3]: > 300 min

SMILES: CC(N(C)C)C1(c2ccc(Cl)c(Cl)c2)CCCCC1 (single isomer, unassigned)
- t1/2 [2]: 28 min

SMILES: CNC(C)C1(c2ccc(Cl)c(Cl)c2)CCCCC1 (single isomer, unassigned; enantiomer 2)
- Activity (Mus musculus [4]): inactive
- Cp (Plasma [5]): 44 ng/mL
- Cp (Plasma [6]): 9 ng/mL
- Drug uptake (Brain [7]): 7070 ng/g
- Activity (Mus musculus [8]): Dose-dependent effect
- Drug uptake (Brain [9]): 145 ng/g
- Drug uptake (Brain [10]): 782 ng/g
- Cp (Plasma [11]): 544 ng/mL

SMILES: CC(N)C1(c2cccc3ccccc23)CCCCC1 (configuration not stated)
- half-life [2]: 80 min
- half-life [3]: > 300 min

SMILES: CC(C)CC(N(C)C)C1(c2ccc(Cl)c(Cl)c2)CCCCC1 (racemic)
- half-life [2]: > 300 min
- half-life [3]: 18 min

SMILES: CNC(C)C1(c2ccc(Cl)c(Cl)c2)CCCCC1 (racemic)
- t1/2 [2]: 154 min
- t1/2 (Liver microsomes): 281 min

SMILES: CNC(C)C1(c2ccc(Cl)c(Cl)c2)CCCCC1.Cl (single isomer, unassigned; enantiomer 2)
- Activity (Mus musculus [12]): 13%
- Activity (Mus musculus [13]): 25%
- IC50 [14]: > 25 µM
- IC50 (Cytochrome P450 2D6): 8.5 µM
- Activity (Mus musculus [15]): 3.3%

SMILES: CC(N(C)C)C1(c2ccc(Cl)c(Cl)c2)CCCCC1 (single isomer, unassigned; enantiomer 1)
- t1/2 [2]: 25 min
- t1/2 (Liver microsomes): 28 min
- IC50 [16]: 40 µM

SMILES: CC(N(C)C)C1(c2ccc3ccccc3c2)CCCCC1 (single isomer, unassigned; enantiomer 2)
- t1/2 [2]: 23 min

SMILES: CCC(N)C1(c2ccc(Cl)c(Cl)c2)CCCCC1 (racemic)
- half-life [2]: 56 min
- half-life [3]: 96 min

SMILES: CC(N(C)C)C1(c2ccc3ccccc3c2)CCCCC1 (racemic)
- half-life [2]: 22 min
- half-life [3]: 33 min

SMILES: CC(N)C1(c2ccc(Cl)c(Cl)c2)CCCCC1 (racemic)
- t1/2 [2]: 163 min
- half-life [3]: > 300 min

SMILES: CC(N(C)C)C1(c2ccc(Cl)c(Cl)c2)CCCCC1 (racemic)
- half-life [2]: 22 min
- half-life [3]: 23 min

SMILES: CNC(CC(C)C)C1(c2ccc(Cl)c(Cl)c2)CCCCC1 (racemic)
- half-life [2]: 18 min
- half-life [3]: 23 min

SMILES: CNC(C)C1(c2ccc(Cl)c(Cl)c2)CCCCC1 (single isomer, unassigned)
- t1/2 [2]: 54 min
- t1/2 (Liver microsomes): 71 min

SMILES: CC(N)C1(c2ccc(Cl)c(Cl)c2)CCCCC1 (single isomer, unassigned; enantiomer 1)
- t1/2 [2]: 84 min

SMILES: CC(N(C)C)C1(c2ccc(Cl)c(Cl)c2)CCCCC1 (configuration not stated)
- Activity (Mus musculus [4]): inactive
- Cp (Plasma [5]): 12 ng/mL
- Cp (Plasma [6]): 2 ng/mL
- Drug uptake (Brain [7]): 845 ng/g
- Activity (Mus musculus [8]): Dose-dependent effect
- Drug uptake (Brain [9]): 19 ng/g
- Drug uptake (Brain [10]): 114 ng/g
- Cp (Plasma [11]): 103 ng/mL

SMILES: CC(N(C)C)C1(c2ccc3ccccc3c2)CCCCC1 (single isomer, unassigned; form 1)
- t1/2 [2]: 19 min
- t1/2 (Liver microsomes): 32 min
- IC50 [16]: 4.3 µM

SMILES: CNC(C)C1(c2ccc3ccccc3c2)CCCCC1 (stereo in doubt; 29)
- half-life [2]: 12 min
- half-life [3]: 90 min

SMILES: CC(N)C1(c2ccc3ccccc3c2)CCCCC1 (single isomer, unassigned)
- t1/2 [2]: 11 min
- t1/2 (Liver microsomes): 150 min

SMILES: CNC(C)C1(c2ccc3ccccc3c2)CCCCC1 (single isomer, unassigned; enantiomer 2)
- t1/2 [2]: 11 min
- t1/2 (Liver microsomes): 101 min

SMILES: CC(N)C1(c2ccc3ccccc3c2)CCCCC1 (racemic)
- half-life [2]: 16 min
- half-life [3]: 140 min

SMILES: CC(N)C1(c2cccs2)CCCCC1 (configuration not stated)
- half-life [2]: 137 min
- half-life [3]: 152 min

SMILES: CC(N)C1(c2ccc(OC(C)(C)C)cc2)CCCCC1 (configuration not stated)
- IC50 [1]: 7.1 µM
- IC50 [17]: 1.52 µM
- IC50 [18]: 5 µM

SMILES: CC(N(C)C)C1(c2ccc3ccccc3c2)CCCCC1 (single isomer, unassigned; form 2)
- Activity (Mus musculus [4]): inactive
- Cp (Plasma [5]): 13 ng/mL
- Cp (Plasma [6]): 2 ng/mL
- Drug uptake (Brain [7]): 564 ng/g
- Activity (Mus musculus [8]): Dose-dependent effect
- Drug uptake (Brain [9]): 25 ng/g
- Drug uptake (Brain [10]): 130 ng/g
- Cp (Plasma [11]): 68 ng/mL

SMILES: CNC(C)C1(c2ccc(Cl)c(Cl)c2)CCCCC1 (stereo in doubt; 24)
- t1/2 [2]: 52 min
- t1/2 (Liver microsomes): 53 min

SMILES: CC(N(C)C)C1(c2ccc3ccccc3c2)CCCCC1.Cl (single isomer, unassigned; form 2)
- Activity (Mus musculus [12]): 14%
- Activity (Mus musculus [13]): 37%
- IC50 [14]: > 25 µM
- IC50 (Cytochrome P450 2D6): > 5 µM
- IC50 (Cytochrome P450 2C19): > 5 µM
- IC50 (Cytochrome P450 3A4): > 5 µM
- IC50 [19]: 4.3 µM
- IC50 (Cytochrome P450 2C9): > 5 µM
- Activity (Mus musculus [15]): 30%

SMILES: CC(N(C)C)C1(c2ccc(Cl)c(Cl)c2)CCCCC1.Cl (configuration not stated)
- Activity (Mus musculus [13]): 27%
- IC50 [14]: > 25 µM
- IC50 (Cytochrome P450 2D6): > 25 µM
- IC50 (Cytochrome P450 2C19): > 25 µM
- IC50 (Cytochrome P450 3A4): > 25 µM
- IC50 [19]: 40 µM
- IC50 (Cytochrome P450 2C9): > 25 µM
- Activity (Mus musculus [15]): 39%

SMILES: CC(N)C1(c2ccc(-c3ccccc3)cc2)CCCCC1 (configuration not stated)
- half-life [2]: 40 min
- half-life [3]: 248 min

SMILES: CC(N)C1(c2ccc3ccccc3c2)CCCCC1 (single isomer, unassigned; enantiomer 2)
- t1/2 [2]: 14 min
- t1/2 (Liver microsomes): 164 min

SMILES: CC(C)CC(N)C1(c2ccc(Cl)c(Cl)c2)CCCCC1 (racemic)
- half-life [2]: 59 min
- half-life [3]: 83 min
